Like-named read-outs stand apart in the source and are kept apart here.
Experiments:
[1] = biological target: HIV integrase (Human immunodeficiency virus type 1 group M subtype B, UniProt P04585); experiment: HIV IN assay; assay type: biochemical, HIV-1
[2] = biological target: HIV RT-associated RNase H (Human immunodeficiency virus type 1 group M subtype B, UniProt P04585); settings: biochemical
[3] = read-out: Biochemical Inhibition INST IC50, as relisted in Table 2

SMILES	IC50 [1] [µM]	IC50 [1, 3] [µM]	selectivity of RNase H inhibition over INST inhibition [2] [fold]
O=C(Nc1ccc(-c2ccccc2)cc1)c1c(Nc2ccc(-c3ccccc3)cc2)[nH]c(=O)n(O)c1=O [Compound 10a, N-([1,1′-Biphenyl]-4-yl)-6-([1,1′-biphenyl]-4-ylamino)-3-hydroxy-2,4-dioxo-1,2,3,4-tetrahydropyrimidine-5-carboxamide]	> 100		
O=C(Nc1ccc(-c2ccc(F)cc2)cc1)c1c(Nc2ccc(-c3ccccc3)cc2)[nH]c(=O)n(O)c1=O [Compound 10b, 6-([1,1′-Biphenyl]-4-ylamino)-N-(4′-fluoro-[1,1′-biphenyl]-4-yl)-3-hydroxy-2,4-dioxo-1,2,3,4-tetrahydropyrimidine-5-carboxamide]	> 100		
COc1ccc(-c2ccc(NC(=O)c3c(Nc4ccc(-c5ccccc5)cc4)[nH]c(=O)n(O)c3=O)cc2)cc1 [Compound 10c, 6-([1,1′-Biphenyl]-4-ylamino)-3-hydroxy-N-(4′-methoxy-[1,1′-biphenyl]-4-yl)-2,4-dioxo-1,2,3,4-tetrahydropyrimidine-5-carboxamide]	> 100		
O=C(NCc1ccc(F)cc1)c1c(Nc2ccc(-c3ccccc3)cc2)[nH]c(=O)n(O)c1=O [Compound 10e, N-(4-Fluorobenzyl)-1-(hydroxy)-1,2,3,6-tetrahydro-2,6-dioxo-4-(biphenylamino)pyrimidine-5-carboxamide]	> 100		
O=C(NCc1cccc(F)c1)c1c(Nc2ccc(-c3ccccc3)cc2)[nH]c(=O)n(O)c1=O [Compound 10f, N-(3-Fluorobenzyl)-1-(hydroxy)-1,2,3,6-tetrahydro-2,6-dioxo-4 (biphenylamino)pyrimidine-5-carboxamide]	> 100	> 100	
O=C(NCc1ccccc1F)c1c(Nc2ccc(-c3ccccc3)cc2)[nH]c(=O)n(O)c1=O [Compound 10g, N-(2-Fluorobenzyl)-1-(hydroxy)-1,2,3,6-tetrahydro-2,6-dioxo-4-(biphenylamino)pyrimidine-5-carboxamide]	> 100		
O=C(NCc1cccc(Cl)c1F)c1c(Nc2ccc(-c3ccccc3)cc2)[nH]c(=O)n(O)c1=O [Compound 10h, N-(3-Chloro-2-fluorobenzyl)-1-(hydroxy)-1,2,3,6-tetrahydro-2,6-dioxo-4-(biphenylamino)pyrimidine-5-carboxamide]	> 100		
O=C(NCc1ccc(F)cc1F)c1c(Nc2ccc(-c3ccccc3)cc2)[nH]c(=O)n(O)c1=O [Compound 10i, N-(2,4-Difluorobenzyl)-1-(hydroxy)-1,2,3,6-tetrahydro-2,6-dioxo-4-(biphenylamino) pyrimidine-5-carboxamide]	> 100	> 100	
O=C(NCc1cc(F)ccc1F)c1c(Nc2ccc(-c3ccccc3)cc2)[nH]c(=O)n(O)c1=O [Compound 10j, N-(2,5-Difluorobenzyl)-1-(hydroxy)-1,2,3,6-tetrahydro-2,6-dioxo-4-(biphenylamino) pyrimidine-5-carboxamide]	> 100	> 100	
O=C(Nc1ccc(-c2ccccc2)cc1)c1c(NCc2ccc(-c3ccccc3)cc2)[nH]c(=O)n(O)c1=O [Compound 10k, N-([1,1′-Biphenyl]-4-yl)-6-(([1,1′-biphenyl]-4-ylmethyl)amino)-3-hydroxy-2,4-dioxo-1,2,3,4-tetrahydropyrimidine-5-carboxamide]	> 100	> 100	
O=C(NCc1ccc(-c2ccccc2)cc1)c1c(NCc2ccc(-c3ccccc3)cc2)[nH]c(=O)n(O)c1=O [Compound 10l]	> 100	> 100	
O=C(Nc1ccccc1)c1c(NCc2ccc(-c3ccccc3)cc2)[nH]c(=O)n(O)c1=O [Compound 10m, 6-(([1,1′-Biphenyl]-4-ylmethyl)amino)-3-hydroxy-2,4-dioxo-N-phenyl-1,2,3,4-tetrahydropyrimidine-5-carboxamide]	> 100	> 100	
O=C(Nc1ccc(-c2ccccc2)cc1)c1c(NCc2ccccc2)[nH]c(=O)n(O)c1=O [Compound 10o, N-([1,1′-Biphenyl]-4-yl)-6-(benzylamino)-3-hydroxy-2,4-dioxo-1,2,3,4-tetrahydropyrimidine-5-carboxamide]	> 100	> 100	
O=C(NCc1ccc(-c2ccccc2)cc1)c1c(NCc2ccccc2)[nH]c(=O)n(O)c1=O [Compound 10p, N-([1,1′-Biphenyl]-4-ylmethyl)-6-(benzylamino)-3-hydroxy-2,4-dioxo-1,2,3,4-tetrahydropyrimidine-5-carboxamide]	> 100	> 100	
O=C(Nc1ccccc1)c1c(NCc2ccccc2)[nH]c(=O)n(O)c1=O [Compound 10q, 6-(Benzylamino)-3-hydroxy-2,4-dioxo-N-phenyl-1,2,3,4-tetrahydropyrimidine-5-carboxamide]	> 100	> 100	
O=C(NCc1ccccc1)c1c(Nc2ccccc2)[nH]c(=O)n(O)c1=O [Compound 10s, N-Benzyl-1-(hydroxy)-1,2,3,6-tetrahydro-2,6-dioxo-4-(phenylamino)pyrimidine-5-carboxamide]			~4
CCc1ccc(NC(=O)c2c(NCc3ccccc3)[nH]c(=O)n(O)c2=O)cc1 [Compound 10v, 6-(Benzylamino)-N-(4-ethylphenyl)-3-hydroxy-2,4-dioxo-1,2,3,4-tetrahydropyrimidine-5-carboxamide]	> 100	> 100	
O=C(Nc1ccc(C(F)(F)F)cc1)c1c(NCc2ccccc2)[nH]c(=O)n(O)c1=O [Compound 10y, 6-(Benzylamino)-3-hydroxy-2,4-dioxo-N-(4-(trifluoromethyl)phenyl)-1,2,3,4-tetrahydropyrimidine-5-carboxamide]	> 100	> 100	

From article PMC5526604 (Journal of medicinal chemistry, 2017)
